Here are results for two molecules from publication PMC11840605, “Crystallographic and Thermodynamic Evidence of Negative Coupling in the Flavin-Dependent Tryptophan Halogenases AbeH and BorH” (ACS Omega, 2025).

Assay [1] has as its target T1, AbeH (uncultured bacterium, UniProt F6LWA5). As to the kind of experiment: FAD fluorescence quenching titration with AbeH. The assay is classed as binding, uncultured soil actinomycetes. The procedure:
Quenching of FAD fluorescence quenching upon binding to AbeH was measured in the absence and presence of Trp in 20 mM Tris-HCl pH 8.0 and 100 mM NaCl using a Quantmaster 40 fluorimeter (Photon Technologies International). Trp and FAD solutions were prepared in 20 mM Tris-HCl pH 8, and concentrations were determined by absorbance at 280 and 450 nm, respectively. FAD fluorescence was measured using excitation at 450 nm (4 nm slit opening) and emission set at 525 nm (6 nm slit opening) using a fluorescence cuvette to collect 50 scans, which were averaged later during data processing in Microsoft Excel. […] Raw fluorescence intensities were corrected for the buffer, Trp, and AbeH background contributions. Quenched fluorescence intensity was plotted vs AbeH concentration and fit to eq 1 using GraphPad Prism 8.0 by nonlinear regression analysis. In eq 1, F = fractional saturation, ΔF = fluorescence quenching upon AbeH/FAD complex formation (calculated from the difference of FAD fluorescence intensity at different AbeH concentration), ΔFmax = maximum fluorescence change obtained from fit, [AbeHFAD] = FAD-bound AbeH, [AbeH]T = Total AbeH concentration, [FAD]T = Total FAD concentration, KD = equilibrium dissociation constant. […]
A. Fluorescence quenching observed from binding of Apo-AbeH ([…]) to […] FAD; […]

Assay [2] has as its target T1, AbeH. As to the kind of experiment: Quenching of AbeH intrinsic Trp fluorescence upon FAD titration. More on the design: species or system uncultured soil actinomycetes. The following applies: FAD binding to AbeH, 100 nM AbeH. The procedure:
Intrinsic tryptophan fluorescence spectroscopy was used to measure FAD binding to AbeH and BorH in 20 mM HEPES pH 7.7- and 50 mM sodium citrate. FAD was prepared in the same buffer and its concentration was determined spectrophotometrically as described earlier. Fluorescence experiments were performed as described earlier. FAD binding to apo-AbeH or apo-BorH was performed in duplicate with 100 nM fixed AbeH or BorH with variable FAD concentrations up to 30 and 70 μM, respectively. AbeH/FAD binding was monitored using excitation at 295 nm and emission at 328 nm. BorH/FAD binding was monitored using excitation at 290 nm and emission at 326 nm. Inner filter effect corrected fluorescence intensities were plotted against quenched intrinsic tryptophan fluorescence of AbeH and BorH. Data were fitted by nonlinear regression to eq 1 using GraphPad Prism 8.0.
Figure S9: FAD binding determined by quenching of BorH and AbeH intrinsic Trp fluorescence.
A. Variable concentrations of FAD (0-70 µM) were incubated with 100 nM BorH and Trp fluorescence was measured with excitation at 290 nm and emission at 326 nm. […]
B. Variable concentrations of FAD (0-30 µM) were incubated with 100 nM AbeH and Trp fluorescence was measured […] with excitation at 295 nm and emission at 328 nm. […]

The next assay has as its system AbeH/FAD. As to the kind of experiment: Isothermal titration calorimetry, Trp into AbeH preincubated with FAD. Format: binding, uncultured soil actinomycetes. The procedure:
ITC experiments were performed using a VP-ITC isothermal titration calorimeter (MicroCal) in 20 mM HEPES pH 7.5, 350 mM NaCl, 1 mM ethylenediamine tetraacetic acid (EDTA) and 15% (v/v) glycerol. Solutions of AbeH, BorH, FAD (Chem-Implex), and Trp (Acros Organics) were prepared in the same buffer and degassed under vacuum at 30 °C for 20 min before loading in the syringe or cell. To analyze formation of binary complexes, AbeH or BorH was placed inside the cell, and ligand (FAD or Trp) was injected. For ternary complex titration, one ligand was preincubated with the macromolecule for 30 min at 30 °C to form binary complexes of AbeH/FAD, AbeH/Trp, BorH/FAD, and BorH/Trp before titrating with the second ligand. […] Formation of FADH2 by sodium dithionite was verified using absorbance and fluorescence spectrophotometry.
ITC experiments were performed with reference power set to 10 μcal/s and Milli-Q water in the reference cell. […] Heats of dilution for all titrants were measured by titrating ligand into buffer for binary complex titrations, and by titrating ligand into a solution containing the other ligand but no protein for ternary complex titration. […]
Titrations were analyzed by manually integrating each injection, subtracting the heat of dilution, and carrying out nonlinear least-squares fit of the calorimetric binding data to a one-site model using Origin 7.0 (Origin Lab). […]
In general terms: In ITC the heat of successive injections is recorded.

A further assay has as its target BorH (uncultured bacterium, UniProt M9QSI0). The following applies: previously shown; cited from earlier work.

“And” between values parts separate entries of the source, which are not always exact repeats. Equal entries are not always repeated. “Also recorded” adds a separate entry of the source.

T1 sequence (F6LWA5 entry or part of it): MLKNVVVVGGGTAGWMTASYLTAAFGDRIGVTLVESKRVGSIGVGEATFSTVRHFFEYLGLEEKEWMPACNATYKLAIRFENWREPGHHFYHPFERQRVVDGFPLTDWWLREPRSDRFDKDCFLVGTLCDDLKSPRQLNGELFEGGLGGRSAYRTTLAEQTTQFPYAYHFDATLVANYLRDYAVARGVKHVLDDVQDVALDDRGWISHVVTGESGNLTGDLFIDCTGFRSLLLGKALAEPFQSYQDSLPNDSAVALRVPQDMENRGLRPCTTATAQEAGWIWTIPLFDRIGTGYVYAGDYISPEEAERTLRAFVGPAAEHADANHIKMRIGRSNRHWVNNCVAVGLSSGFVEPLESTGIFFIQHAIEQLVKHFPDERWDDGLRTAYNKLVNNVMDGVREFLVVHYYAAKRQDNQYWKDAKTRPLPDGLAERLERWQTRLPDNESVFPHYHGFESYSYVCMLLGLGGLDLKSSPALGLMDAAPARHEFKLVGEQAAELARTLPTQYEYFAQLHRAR
Chain of BorH (M9QSI0 1-529): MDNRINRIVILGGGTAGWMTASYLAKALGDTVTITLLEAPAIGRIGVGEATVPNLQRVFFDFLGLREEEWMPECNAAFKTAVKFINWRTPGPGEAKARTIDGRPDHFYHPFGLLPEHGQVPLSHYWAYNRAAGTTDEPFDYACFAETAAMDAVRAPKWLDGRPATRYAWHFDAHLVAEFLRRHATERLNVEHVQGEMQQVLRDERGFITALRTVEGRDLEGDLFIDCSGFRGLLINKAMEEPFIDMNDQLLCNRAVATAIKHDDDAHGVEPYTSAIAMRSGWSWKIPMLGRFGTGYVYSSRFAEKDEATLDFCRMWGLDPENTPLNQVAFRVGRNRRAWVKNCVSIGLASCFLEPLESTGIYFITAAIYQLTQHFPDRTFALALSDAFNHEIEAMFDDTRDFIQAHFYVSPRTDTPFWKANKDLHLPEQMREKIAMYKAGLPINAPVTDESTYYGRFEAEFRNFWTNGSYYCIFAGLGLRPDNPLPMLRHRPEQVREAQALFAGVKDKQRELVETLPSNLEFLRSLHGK

Take `Cc1cc2nc3c(=O)[nH]c(=O)nc-3n(C[C@H](O)[C@H](O)[C@H](O)COP(=O)(O)OP(=O)(O)OC[C@H]3O[C@@H](n4cnc5c(N)ncnc54)[C@H](O)[C@@H]3O)c2cc1C` [FAD]: the equilibrium dissociation constant (Kd) on AbeH [1] is 1.6 ± 0.4 µM; on AbeH [2], 0.96 µM and 1 µM.
Turning to `N[C@@H](Cc1c[nH]c2ccccc12)C(=O)O` [Tryptophan, L-tryptophan], the “Binding of Trp to preincubated AbeH/FAD by ITC, in words” value in the assay with AbeH/FAD (27 mM Trp into 48 μM AbeH preincubated with 3.3 mM FAD, listed as Trp) is “No binding was observed; also recorded: no evidence of Trp binding”. Besides, the “KD, Trp binding to AbeH/FAD, ITC” value on AbeH/FAD (AbeH preincubated with FAD) is “no binding”. Moreover, the “Halogenation of the substrate by BorH, in words” value on BorH is “brominate and chlorinate”.

As usually defined, the Kd is the equilibrium constant for the complex coming apart. A high value points to weaker binding.
